Results reported in patent publication US7223764B2, “2,4-bis (trifluoroethoxy)pyridine compound and drug containing the compound” (Kowa Co., Ltd., priority 2003, dated 2007).
Values after ≈ are worked out from the molar mass of the structure shown. Counter-ions that a name gives are not always drawn.

Assays:
[1] = Solubility test (Japanese Pharmacopoeia Solution I); assay type: physicochemical; settings: simulated gastric fluid, kinetic from dmso stock, pH 1.2, filtrate through 0.2-μm filter, HPLC
Description: Each test compound was dissolved in acetonitrile to form a 100 μM solution, and the solution was added to Japanese Pharmacopoeia Solution I to form a 1000 ng/mL solution. The resultant solution was stirred for ten minutes, and an aliquot (1 mL) was placed into an injection tube and then passed through a 0.2-μm filter (HLC-DISK 13, water/solvent, Kanto Kagaku Kabushiki-kaisya). The filtrate (0.5 mL) was subjected to the extraction procedure*, and the amount of the test compound was determined through HPLC.
(§1) The extraction was performed in a manner similar to that of the test on stability against metabolism in human liver microsome.

[2] = Oral administration test in rats (plasma levels); assay type: in vivo, rat; settings: 10 mg/kg p.o.
Description: Each test compound was dissolved in a 0.01N hydrochloric acid solution, and the solution was perorally administered to male or female rats at 10 mg/5 mL/kg. Blood samples (0.25 mL each) were collected 30, 60, 120, 180, 240, and 360 minutes after administration. The collected blood samples were centrifuged for five minutes at 4° C. and 9,000 g, to thereby prepare plasma samples. The plasma samples were stored at −30° C. before measurement. The samples were subjected to the extraction procedure*, and plasma levels of the test compound were determined through LC/MS/MS.
as §1

[3] = Test on stability against metabolism in human liver microsome; assay type: in vitro ADME; settings: 30 minutes after initiation of reaction, 37° C., FIG. 1
Description: In accordance with Table 2 described below, an NRS (NADPH regenerating system) solution and 16% human serum albumin were added to 0.1 mol/L phosphate buffer (pH 7.4), and a solution of a test compound (100 μM) in acetonitrile (0.01 mL) was added thereto. The mixture was pre-incubated for five minutes in a warm bath at 37° C., and human liver microsome (POOLED HUMAN LIVER MICROSOMES, Lot. No. 20, product of GENTEST) was added thereto, followed by allowing reaction for 30 minutes in a warm bath at 37° C. An aliquot (0.25 mL) was collected from the reaction mixture 0 and 30 minutes after the start of reaction, followed by extraction*. The amount of the test compound was determined through HPLC. Residual percentage of the unchanged compound after 30 minutes was calculated based on the following equation: peak area after 30 minutes/peak area at 0 minute)×100.
To each sample, gkycine buffer (pH 10, 1.0 mL), an internal standard substance (0.1 mL), and tert-butyl methyl ether (5.0 mL) were added. The mixture was shaken for ten minutes and then centrifuged at 2,500 rpm […], and the […] was collected.

[4] = molecular target: T1, ACAT (Mus musculus, UniProt Q61263); test: Test for ACAT inhibitory activity in J774A cells (cholesterol ester production); assay type: cell-based
T1 construct: endogenous in cells; host or cells: J774 (J774A) cells
T1 sequence (Q61263 1-540): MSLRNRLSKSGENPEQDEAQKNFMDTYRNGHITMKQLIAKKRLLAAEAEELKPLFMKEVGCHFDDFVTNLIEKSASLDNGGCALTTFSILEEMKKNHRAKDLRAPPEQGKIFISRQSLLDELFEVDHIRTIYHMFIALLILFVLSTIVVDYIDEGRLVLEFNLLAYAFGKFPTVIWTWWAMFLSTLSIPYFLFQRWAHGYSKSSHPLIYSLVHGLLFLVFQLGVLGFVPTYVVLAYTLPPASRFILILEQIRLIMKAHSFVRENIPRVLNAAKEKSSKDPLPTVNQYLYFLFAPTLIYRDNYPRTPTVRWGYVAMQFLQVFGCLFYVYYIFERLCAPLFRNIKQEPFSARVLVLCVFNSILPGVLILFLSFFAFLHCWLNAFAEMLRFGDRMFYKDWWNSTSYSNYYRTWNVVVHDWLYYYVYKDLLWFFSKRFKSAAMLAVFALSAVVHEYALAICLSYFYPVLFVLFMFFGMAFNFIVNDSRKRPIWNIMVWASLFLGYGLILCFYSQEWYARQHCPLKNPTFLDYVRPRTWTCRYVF
Description: J774 cells (2×10^5 cells/well) were seeded on a 24-well plate and incubated for 24 hours in DMEM (10% FBS, 500 μL). After replacement with a new medium, 25-hydroxycholesterol (10 μg/mL) and ACAT inhibitor (final concentration: 0, 10^−9 to 10^−5 mol/L) were added thereto, followed by incubation for 18 hours. After washing with 0.9% sodium chloride, the lipid was extracted with hexane-isopropanol (3:2) (250 μL) and then with hexane-isopropanol (3:2) (250 μL) again. The extracts were combined, and the solvent was removed. The thus-obtained cholesterol ester (CE) was quantified through the fluorescent enzyme assay. The cells from which the lipid had been extracted were subjected to protein assay (micro BCA assay), to thereby determine the amount of CE per mg of protein.

Row | Compound | solubility at 10 min [1] [µg/mL] | AUC ([2]; Female rat) [ng·h/mL] | Cmax ([2]; Female rat) [ng/mL] | AUC ([2]; Male rat) [ng·h/mL] | Cmax ([2]; Male rat) [ng/mL] | melting point [°C] | residual percentage of the unchanged compound [3] [%] | IC50 [4] [nM]
1 | Cc1cc(OCC(F)(F)F)c(NC(=O)CN2CCN(CCSc3nc4ccc(F)cc4[nH]3)CC2)c(OCC(F)(F)F)n1 [Compound (1a), 2-[4-[2-(5-fluorobenzimidazol-2-ylthio)ethyl]piperazin-1-yl]-N-[2,4-bis(2,2,2-trifluoroethoxy)-6-methylpyridin-3-yl]acetamide] | 0.562 (≈ 0.9 µM) | 5100 | 3410 | 367 | 418 | 182 to 182.7 | 27 | 87
2 | CSc1cc(C)nc(SC)c1NC(=O)CN1CCN(CCSc2nc3ccccc3[nH]2)CC1 [Compound (B).HCl, reference compound] | – | 2470 | 1170 | 200 | 207 | – | 16 | –
3 | Cc1cc(OCC(F)(F)F)c(NC(=O)CN2CCN(CCSc3nc4cc(F)c(F)cc4[nH]3)CC2)c(OCC(F)(F)F)n1 [Compound (1b), 2-[4-[2-(5,6-difluorobenzimidazol-2-ylthio)ethyl]piperazin-1-yl]-N-[2,4-bis(2,2,2-trifluoroethoxy)-6-methylpyridin-3-yl]acetamide] | 0.422 (≈ 0.657 µM) | 6550 | 2840 | 917 | 614 | 191 to 192 | 62 | 75
